Reference: patent US7101878B1 (Agouron Pharmaceuticals, Inc., priority 1998, dated 2006)
Like-named read-outs stand apart in the source and are kept apart here.

Columns and labels:
[1] = biological target: T1, bovine GnRH receptor (Bos taurus, UniProt P32236); assay: Radioligand binding, 125I-GnRH-A, bovine pituitary membranes; conditions: means ± SE of at least three experiments performed in duplicate; read-out: Bovine IC50
T1 construct: membranes were prepared from bovine pituitary; from tissue; host or cells: bovine pituitary
T1 sequence (P32236 1-328): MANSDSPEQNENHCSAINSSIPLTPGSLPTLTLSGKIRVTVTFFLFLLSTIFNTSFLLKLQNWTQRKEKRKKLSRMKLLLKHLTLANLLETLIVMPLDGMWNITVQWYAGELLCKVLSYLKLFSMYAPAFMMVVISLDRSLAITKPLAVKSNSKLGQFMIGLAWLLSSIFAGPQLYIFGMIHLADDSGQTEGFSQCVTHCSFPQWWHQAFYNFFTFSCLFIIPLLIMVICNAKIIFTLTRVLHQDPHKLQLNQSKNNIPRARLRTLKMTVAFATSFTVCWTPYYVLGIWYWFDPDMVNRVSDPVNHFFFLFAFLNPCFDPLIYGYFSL
Summary of the method: (§1)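 Bound label captured on 0.1% polyethyleneimine-treated GF/C filters, washed three times with PBS, counted. IC50 derived; identical set-up for every species.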

[2] = biological target: T2, rat GnRH receptor (Rattus norvegicus, UniProt P30969); assay: Microphysiometry, extracellular acidification rate, GGH3 cells; type: cell-based; conditions: agonist alone
T2 sequence (P30969 1-327): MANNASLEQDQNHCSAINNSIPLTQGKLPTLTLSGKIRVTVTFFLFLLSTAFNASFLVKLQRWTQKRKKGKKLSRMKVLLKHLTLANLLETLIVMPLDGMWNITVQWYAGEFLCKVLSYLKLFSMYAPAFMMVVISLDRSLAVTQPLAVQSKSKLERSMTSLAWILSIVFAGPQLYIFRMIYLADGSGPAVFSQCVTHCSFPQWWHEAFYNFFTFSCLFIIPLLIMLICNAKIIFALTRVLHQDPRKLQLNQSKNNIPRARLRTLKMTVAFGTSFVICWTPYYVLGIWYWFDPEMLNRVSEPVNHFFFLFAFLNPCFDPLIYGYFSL
Method: These cells have been extensively characterized previously (Kaiser et al., 1997). These cells were grown in low glucose Dulbecco's modified Eagle's medium (DMEM) containing: 100U/mL penicillin/streptomycin, 0.6 g/L G418 and 10% beat-inactivated fetal bovine serum
This cell line was provided by Dr. Stuart Sealfon, Mount Sinai Medical School New York, N.Y. These cells were grown in DMEM supplemented with 0.2 g/L G418 100 U/ml penicillin/streptomycin and 10% FBS. Both GGH3 and hGnRH-R/293 cells were utilized for both for both total inositol phosphate measurement and for microphysiometry assessment of compound efficacy.
The Cytosensor®Microphysiometer (Molecular Devices, Sunnyvale, Calif.) is a real-time, noninvasive, nonradioactive semiconductor-based system for monitoring the cellular responses to various stimuli. It is based on a pH-sensitive silicon sensor, the light-addressable potentiometric sensor which forms part of a microvolume flow chamber in which cultured cells are immobilized (Pitchford et al., 1995; Parce et al., 1989; Owicki, et al. 1994).
GGH3 cells were seeded in low-buffered minimal essential media (MEM, Sigma) containing 25 mM NaCl and 0.1% BSA at a density of 500,000 cells/capsule onto the polycarbonate membrane (3 μm porosity) of cell capsule cups (Molecular Devices, Sunnyvale, Calif.). Capsule cups were transferred to sensor chambers where cells were held in close apposition to a silicon sensor within a sensor chamber, which measures small changes in pH in the microvolume of the sensor chamber. Low-buffered medium was pumped continuously across the cells at a rate of approximately 100 μl/min from one of two fluid reservoirs. A selection valve determined which reservoir from which fluid was perifused onto the cells.
The Cytosensor®Microphysiometer generates a voltage signal, which is a linear function of pH, every second. In order to measure acidification rates, flow to the sensor chamber containing the cells was periodically interrupted, allowing for excreted acidic metabolites to build up in the extracellular fluid of the cells. In these experiments, cells were maintained at 37° C. on a two minute flow cycle with cells being perfused with media for 80 seconds followed by 40 seconds in which the flow of media was stopped. During this 40 second interval, acidification rates were measured for a 30 sec interval. In this fashion, a single acidification rate was calculated every two min. The Cytosensor®Microphysiometer device contains eight such sensor units, allowing for eight simultaneous experiments to be performed. Each unit was individually programmed utilizing a computer linked to the system.
GGH3 cells were initially equilibrated in the low-buffered MEM media for a period of 30-60 min in which basal acidification rates (measured as μV/sec), in the absence of any stimuli, were monitored. When the basal rate of acidification changed by less than ten percent over a period of twenty minutes, experiments were initiated. Time course experiments were performed to determine the optimal time for agonist exposure prior to acidification rate measurement and the duration of exposure needed to obtain peak acidification responses to various agonists. From these time course experiments, it was determined that cells should be exposed to GnRH peptide agonists at least one minute prior to collection of acidification rate data. Peak acidification rates usually occurred in the first two-minute exposure cycle. In order to capture the peak response to GnRH, cells were exposed to the agonist for a total of four minutes. […] All compounds were tested in a final concentration of 1% DMSO in low-buffered MEM media described above.

[3] = biological target: T3, mouse GnRH receptor (Mus musculus, UniProt Q01776); assay: Radioligand binding, 125I-GnRH-A, 293 cells expressing mouse GnRH receptors
T3 construct: expressed in transfected cells; host or cells: 293 cells
T3 sequence (Q01776 1-327): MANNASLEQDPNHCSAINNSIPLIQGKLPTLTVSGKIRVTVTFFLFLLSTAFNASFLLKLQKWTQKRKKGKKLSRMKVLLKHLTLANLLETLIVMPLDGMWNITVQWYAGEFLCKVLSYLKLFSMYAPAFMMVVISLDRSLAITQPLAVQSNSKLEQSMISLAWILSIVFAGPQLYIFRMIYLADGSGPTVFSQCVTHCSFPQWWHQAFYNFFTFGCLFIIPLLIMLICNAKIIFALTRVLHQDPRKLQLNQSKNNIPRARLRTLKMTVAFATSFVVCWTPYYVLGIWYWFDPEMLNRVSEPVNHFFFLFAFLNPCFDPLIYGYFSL
Summary of the method: as §1

[4] = Metabolism rate, pmol/min/mg at 1 μM, dog; type: in vitro ADME; conditions: 1 μM compound
[5] = Metabolism rate, pmol/min/mg at 1 μM, monkey; type: in vitro ADME; conditions: 1 μM compound
[6] = biological target: T2, rat GnRH receptor; assay: Radioligand binding, 125I-GnRH-A, rat pituitary membranes; set-up: membranes were prepared from rat pituitary; from tissue; host or cells: rat pituitary; conditions: read-out: rGnRH IC50
Summary of the method: as §1

[7] = Metabolism rate, pmol/min/mg at 1 μM, rat male; type: in vitro ADME; conditions: 1 μM compound
[8] = biological target: T4, human GnRH receptor (Homo sapiens, UniProt P30968); assay: Radioligand binding, 125I-GnRH-A displacement, membranes of HEK 293 cells with human GnRH receptor; conditions: read-out: hGnRH IC50
T4 construct: expressed in transfected cells; host or cells: HEK 293 (hGnRH-R/293, from Dr. Stuart Sealfon)
T4 sequence (P30968 1-328): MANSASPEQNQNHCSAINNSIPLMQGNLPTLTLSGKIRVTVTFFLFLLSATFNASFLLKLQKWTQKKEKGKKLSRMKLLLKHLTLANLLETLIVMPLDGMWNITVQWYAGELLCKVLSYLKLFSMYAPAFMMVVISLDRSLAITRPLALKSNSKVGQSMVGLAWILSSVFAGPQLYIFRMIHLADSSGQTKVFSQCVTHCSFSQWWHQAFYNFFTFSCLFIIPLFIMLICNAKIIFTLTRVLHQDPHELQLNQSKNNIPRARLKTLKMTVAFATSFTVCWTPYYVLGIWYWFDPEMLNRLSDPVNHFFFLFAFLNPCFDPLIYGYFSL
Summary of the method: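 After filtration and PBS washes, bound radioactivity was counted by scintillation and IC50 derived. Identical conditions applied for non-human receptors.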

[9] = Metabolism rate, pmol/min/mg at 1 μM, rat female; type: in vitro ADME; conditions: 1 μM compound
[10] = Metabolism rate, pmol/min/mg at 1 μM, human; type: in vitro ADME; conditions: 1 μM compound
[11] = Pharmacokinetic studies / bioavailability in rats; type: in vivo, rat; conditions: for half-life / Cmax / Tmax: rat, plasma; for Cmax / Tmax: po
[12] = biological target: 5-HT7 (Homo sapiens, UniProt P34969); assay: Selectivity: 5-HT7
Sequence of 5-HT7 (P34969 whole entry, species assumed): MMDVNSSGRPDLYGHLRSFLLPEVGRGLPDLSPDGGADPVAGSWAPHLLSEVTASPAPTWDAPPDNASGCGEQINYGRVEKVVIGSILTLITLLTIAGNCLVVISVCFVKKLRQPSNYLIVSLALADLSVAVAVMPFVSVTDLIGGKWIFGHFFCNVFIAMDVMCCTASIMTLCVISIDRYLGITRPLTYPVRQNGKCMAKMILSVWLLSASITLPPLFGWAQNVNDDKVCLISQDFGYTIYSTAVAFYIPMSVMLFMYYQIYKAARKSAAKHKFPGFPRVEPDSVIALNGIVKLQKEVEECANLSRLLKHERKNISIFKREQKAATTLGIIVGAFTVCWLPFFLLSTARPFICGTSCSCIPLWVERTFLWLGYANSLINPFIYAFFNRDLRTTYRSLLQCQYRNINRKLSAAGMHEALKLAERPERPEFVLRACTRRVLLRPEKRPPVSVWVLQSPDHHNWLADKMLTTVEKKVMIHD

[13] = biological target: D2 Dopamine (Homo sapiens, UniProt P14416); assay: Selectivity: D2 Dopamine
Sequence of D2 Dopamine (P14416 whole entry): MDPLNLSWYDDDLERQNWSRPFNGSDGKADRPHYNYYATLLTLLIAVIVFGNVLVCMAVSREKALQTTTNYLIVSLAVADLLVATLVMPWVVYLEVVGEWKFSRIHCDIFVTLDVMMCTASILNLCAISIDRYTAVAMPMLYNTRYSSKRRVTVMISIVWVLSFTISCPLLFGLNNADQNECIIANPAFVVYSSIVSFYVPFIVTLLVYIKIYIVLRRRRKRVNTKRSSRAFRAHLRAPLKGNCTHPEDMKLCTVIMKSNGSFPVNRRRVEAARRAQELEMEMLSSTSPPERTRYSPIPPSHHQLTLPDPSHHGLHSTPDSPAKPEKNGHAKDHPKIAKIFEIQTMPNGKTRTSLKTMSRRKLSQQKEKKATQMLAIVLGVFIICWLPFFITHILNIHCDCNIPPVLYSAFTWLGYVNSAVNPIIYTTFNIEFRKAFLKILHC

[14] = male, 20 mg/kg, rat male, p.o. 20 mg/kg, vehicle per footnote (DMSO/cremophor/saline)
[15] = female, 10 mg/kg, rat female, p.o. 10 mg/kg, 5 mg/ml solution in 10% DMSO 10% cremophor 80% saline

For `CC(C)C[C@H](NC(=O)CNC(=O)[C@H](Cc1ccc(O)cc1)NC(=O)[C@H](CO)NC(=O)[C@H](Cc1c[nH]c2ccccc12)NC(=O)[C@H](Cc1c[nH]cn1)NC(=O)[C@@H]1CCC(=O)N1)C(=O)N[C@@H](CCCNC(=N)N)C(=O)N1CCC[C@H]1C(=O)NCC(N)=O` [GnRH, reference compound], the IC50 [1] was 13 ± 2 nM, the “extracellular acidification rate of GGH3 cells” value [2] was “dose-dependent increase in the extracellular acidification rate” and the IC50 ([3]; Mouse IC50, means ± SE of at least three experiments performed in duplicate) was 11 ± 2 nM.
For `Cc1cc2c(cc1Cc1ccc(C(=O)NCc3cccc(CNc4nccc(NC[C@@H]5CCCO5)n4)c3)o1)C(C)(C)CCC2(C)C` [Compound 148], the “Dog pmol/min/mg 1 μM” value [4] was 1960 pmol/min/mg, the “Monkey pmol/min/mg 1 μM” value [5] was 5019 pmol/min/mg and the IC50 [6] was 1.6 nM. For the same compound, the IC50 ([3]; read-out: mGnRH IC50) was 1.3 nM, the “Rat male pmol/min/mg 1 μM” value [7] was 1414 pmol/min/mg and the IC50 [8] was 12 nM. The “Rat female pmol/min/mg 1 μM” value [9] was 133 pmol/min/mg, the “Human pmol/min/mg 1 μM” value [10] was 248 pmol/min/mg and the half-life ([11]; male, iv, 10 mg/kg, rat male) was 1.1 h. For the same compound, the Cmax [11, 14] was 30 nM, the Tmax [11, 14] was 2 h and the Fp.o. ([11]; rat male, p.o. 20 mg/kg, vehicle per footnote (DMSO/cremophor/saline)) was 3% (20 mg/kg)^1.
Compound `COc1cccc(OC)c1NC(=O)c1ccc(Cc2c(C)cc(C)c(Br)c2C)o1` [Compound 140] has a Ki [12] greater than 4400 nM, an IC50 [6] of 530 nM and a Ki [13] of 2300 nM. For the same compound, the IC50 ([3]; read-out: mGnRH IC50) was 320 nM, the “Rat male pmol/min/mg 1 μM” value [7] was 2521 pmol/min/mg and the IC50 [8] was 110 nM. The “Human pmol/min/mg 1 μM” value [10] was 497 pmol/min/mg, the Cmax [11, 15] was 440 nM and the Tmax [11, 15] was 1 h. For the same compound, the half-life ([11]; female, rat female) was 4.6 h and the Fp.o. ([11]; rat female, 5 mg/ml solution in 10% DMSO 10% cremophor 80% saline) was 59% (10 mg/kg)^10.
